Data set [1] deals with A549. The experiment in a line: Antiproliferative activity against human A549 cells over-expressing CK2 assessed as growth inhibition. It is filed as functional, cell-based.
The target of data set [2] is Casein kinase II (Homo sapiens, UniProt P19784+P67870+P68400). The experiment in a line: Inhibition of recombinant human N-terminal 6His-tagged CK2 expressed in baculovirus infected Sf21 cells in presence of ATP by radiometric assay.
The nature of data set [3]: Inhibition of TNF-alpha induced NF-kappaB transcriptional activity in HEK293 cells expressing NF-kappaB-Luc measured after 48 hrs by luciferase assay. The data set is classed as cell-based. Conditions: Homo sapiens, HEK293, 48 h.
Data set [4] concerns MDA-MB-231. In words: Cytotoxicity against human MDA-MB-231 cells assessed as reduction in cell viability by MTT assay. The data set is classed as functional, cell-based. In general terms: Tetrazolium dyes change colour on reduction, which living cells bring about.
Data set [5] in a line: Cytotoxicity against human hTERT-HME1 cells assessed as reduction in cell viability by MTT assay. The data set is classed as functional, cell-based.
Data set [6] deals with MCF7. In words: Cytotoxicity against human MCF7 cells assessed as reduction in cell viability by MTT assay. It is filed as functional, cell-based.
The target in data set [7] is T1, Steryl-sulfatase (Homo sapiens, UniProt P08842).
T1 sequence (P08842 whole entry): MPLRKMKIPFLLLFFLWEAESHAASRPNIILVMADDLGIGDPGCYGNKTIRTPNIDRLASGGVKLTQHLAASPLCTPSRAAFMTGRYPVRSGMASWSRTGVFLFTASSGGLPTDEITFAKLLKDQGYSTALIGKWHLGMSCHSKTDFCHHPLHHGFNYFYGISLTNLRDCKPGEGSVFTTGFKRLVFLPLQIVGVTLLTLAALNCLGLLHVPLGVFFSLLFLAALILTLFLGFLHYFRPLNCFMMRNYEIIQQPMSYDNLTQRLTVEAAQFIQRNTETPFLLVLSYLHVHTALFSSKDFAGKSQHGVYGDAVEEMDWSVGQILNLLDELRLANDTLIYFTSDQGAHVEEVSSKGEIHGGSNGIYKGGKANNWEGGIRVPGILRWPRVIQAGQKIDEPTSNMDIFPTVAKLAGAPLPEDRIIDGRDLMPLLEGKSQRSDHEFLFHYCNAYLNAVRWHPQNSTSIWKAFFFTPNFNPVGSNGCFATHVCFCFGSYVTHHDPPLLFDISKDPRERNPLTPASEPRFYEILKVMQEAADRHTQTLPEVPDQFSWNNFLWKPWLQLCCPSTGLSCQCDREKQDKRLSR
In words: Inhibition of placental sulphatase (unknown origin).

In data set [8] the test system is MDA-MB-231. In words: cells. Conditions: Homo sapiens.
Description: Antiproliferative activity against human MDA-MB-231 cells
The nature of data set [9]: Antiproliferative activity against human PC3 cells. It is filed as functional, cell-based. The note with it: PC-3.
Data set [10] concerns MCF7. The experiment in a line: cells. The note with it: Homo sapiens.
Description: Antiproliferative activity against human MCF7 cells
Data set [11] deals with T1, Steryl-sulfatase. The experiment in a line: Inhibition of sulphatase in human MCF7 cells assessed as inhibition of E1-STS activity. The data set is classed as cell-based.
Data set [12] in a line: Octanol-water partition coefficient, log P of the compound. The data set is classed as physicochemical.
The target of data set [13] is T2, Aromatase (Homo sapiens, UniProt P11511).
T2 sequence (P11511 whole entry): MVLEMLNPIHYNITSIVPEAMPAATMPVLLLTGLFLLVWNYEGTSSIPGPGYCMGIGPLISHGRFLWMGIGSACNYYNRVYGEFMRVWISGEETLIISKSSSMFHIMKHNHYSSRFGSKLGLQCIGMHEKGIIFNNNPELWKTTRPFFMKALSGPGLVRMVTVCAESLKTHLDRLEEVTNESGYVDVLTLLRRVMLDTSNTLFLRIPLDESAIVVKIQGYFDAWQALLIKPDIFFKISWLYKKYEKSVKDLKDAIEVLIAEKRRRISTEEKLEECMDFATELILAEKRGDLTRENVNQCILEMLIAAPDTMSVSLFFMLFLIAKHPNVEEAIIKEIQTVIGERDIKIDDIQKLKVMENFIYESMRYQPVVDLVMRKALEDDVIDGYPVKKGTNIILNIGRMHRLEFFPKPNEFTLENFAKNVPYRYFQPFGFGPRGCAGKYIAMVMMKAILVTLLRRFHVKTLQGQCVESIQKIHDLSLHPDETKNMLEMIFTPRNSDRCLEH
Description: Inhibition of aromatase (unknown origin) preincubated for 10 mins in presence of NADPH generating system followed by addition of dibenzylfluorescein as substrate measured after 30 mins by fluorescence quenching assay

The subject of data set [14] is MRC5. In words: Cytotoxicity against human MRC5 cells assessed as reduction in cell viability measured after 48 hrs by MTT assay. It is filed as functional, cell-based. Conditions: MRC5, 48 h.
Data set [15] has as its system A-375. In words: Cytotoxicity against human A375 cells assessed as reduction in cell viability measured after 48 hrs by MTT assay. It is filed as functional, cell-based. Conditions: A-375, 48 h.
Data set [16] has as its target T2, Aromatase. It is filed as cell-based, MCF7.
Description: Inhibition of aromatase in human MCF7 cells using [1beta-3H]androstenedione as substrate measured after 1 hr by liquid scintillation counting method

Consider 13 compounds from ChEMBL document CHEMBL3826918, “Recent developments of C-4 substituted coumarin derivatives as anticancer agents” (Eur J Med Chem, 2016).

Casein kinase II, sequence (P67870 whole entry): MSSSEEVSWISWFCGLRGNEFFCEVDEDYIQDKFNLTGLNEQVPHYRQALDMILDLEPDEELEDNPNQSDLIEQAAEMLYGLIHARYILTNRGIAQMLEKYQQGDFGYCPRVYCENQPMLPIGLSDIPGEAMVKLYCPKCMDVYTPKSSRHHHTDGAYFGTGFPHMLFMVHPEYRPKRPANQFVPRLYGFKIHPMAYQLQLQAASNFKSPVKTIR
Casein kinase II, sequence (P68400 whole entry): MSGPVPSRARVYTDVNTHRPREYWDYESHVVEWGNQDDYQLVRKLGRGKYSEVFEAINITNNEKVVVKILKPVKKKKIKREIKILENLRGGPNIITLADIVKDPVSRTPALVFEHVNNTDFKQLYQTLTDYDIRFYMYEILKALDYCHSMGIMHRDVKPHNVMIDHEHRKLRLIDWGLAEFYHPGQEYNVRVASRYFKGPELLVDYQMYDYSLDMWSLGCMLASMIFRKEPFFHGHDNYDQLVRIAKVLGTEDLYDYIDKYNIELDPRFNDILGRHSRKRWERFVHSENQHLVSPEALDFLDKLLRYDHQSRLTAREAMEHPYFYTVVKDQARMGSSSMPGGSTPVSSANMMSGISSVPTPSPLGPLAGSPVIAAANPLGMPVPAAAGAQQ
Casein kinase II, sequence (P19784 whole entry): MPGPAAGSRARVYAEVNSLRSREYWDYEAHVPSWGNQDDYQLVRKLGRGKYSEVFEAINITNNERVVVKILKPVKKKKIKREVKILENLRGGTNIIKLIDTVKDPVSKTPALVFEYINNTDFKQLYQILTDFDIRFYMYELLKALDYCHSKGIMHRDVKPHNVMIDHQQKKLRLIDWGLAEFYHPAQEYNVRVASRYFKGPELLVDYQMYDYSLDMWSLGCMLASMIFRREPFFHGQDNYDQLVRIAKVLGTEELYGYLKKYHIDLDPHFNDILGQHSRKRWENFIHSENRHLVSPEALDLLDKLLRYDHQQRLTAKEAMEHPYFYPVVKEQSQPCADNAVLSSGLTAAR

With `O=c1cc(C(F)(F)F)c2ccc(O)c(Cl)c2o1`, the IC50 (as a rule, the point on the concentration scale where inhibition reaches its midpoint) amounted to 20.2 µM in data set [1] and 0.4 µM in data set [2].
`COc1cc(C2CC(=O)Oc3cc4c(c(OC)c32)OCO4)cc(OC)c1OC` (centres undefined) returned a half-maximal inhibitory concentration (IC50) in [3] of 0.11 µM.
On to `COc1ccc2c(CSC3=CC(=O)c4ccccc4C3=O)cc(=O)oc2c1`, for which the IC50 in data set [4] was 9.5 µM; in data set [5], 18.1 µM; in data set [6], 11.2 µM.
Take `NS(=O)(=O)Oc1ccc2c(c1)OC(=O)C1CCCCCCCCCCC21` (centres undefined): inhibition in [7] was half-maximal at 0.001 µM (IC50).
Consider `O=C(c1ccc(OCCN2CCCCC2)cc1)c1c(-c2ccc(O)cc2)sc2cc(O)ccc12` [RALOXIFENE], for which the IC50 in [8] was 18.5 µM; in data set [9] it was > 40 µM; in data set [10], 15.4 µM.
In data set [3], `COc1cc(C2CC(=O)Oc3cc4c(cc32)OCO4)cc(OC)c1OC` (centres undefined) returned an IC50 of 0.11 µM.
Consider `O=C1C=C(SCc2cc(=O)oc3cc(O)ccc23)C(=O)c2ccccc21`, for which the IC50 in data set [4] is 9.5 µM; in data set [5], 18.1 µM; in data set [6], 11.2 µM.
For `Cc1cc(=O)oc2ccc(OS(N)(=O)=O)cc12`, in [11], the IC50 came to 0.38 µM.
Consider `COc1cc(C2CC(=O)Oc3cc4c(cc32)OCO4)cc(OC)c1O` (centres undefined), for which the lipophilicity (logP) (in general, the decadic logarithm of the partition coefficient of the neutral form, usually between octanol and water) in data set [12] was determined as 2.17.
As for `CC/C(=C(\c1ccccc1)c1ccc(OCCN(C)C)cc1)c1ccccc1` [TAMOXIFEN], the IC50 is 17.9 µM in [8], > 40 µM in data set [9] and 13.7 µM in data set [10].
On to `COc1cc(C2CC(=O)Oc3cc4c(cc32)OCO4)cc(OC)c1OC(C)=O` (centres undefined), for which the logP in [12] came out at 2.17. In data set [13], the IC50 is 12.1 µM.
In the case of `O=c1cc(-c2ccccc2)c2ccc(O)c(O)c2o1`, the results for the IC50 in [14] and in data set [15] were 47 µM and 39 µM, respectively.
In turn, `COc1ccc2c(Cc3ccccc3)c(-c3ccc(Cl)cc3)c(=O)oc2c1` registered an IC50 in [16] of 0.08 µM.
